# Results: patent US20130338130A1 (priority 2009, published 2013)
# Where “and” joins values, the source holds several entries; their conditions need not be identical. Equal values may be shown once. Read-outs that look alike come from different tables or passages of the source.
# Tests used:
# [1] = tested on: ATCC strain 43300 Staphylococcus aureus; test: MRSA survival in MSM, DMSO and oxacillin, 48 hours (Example 2)
# Experimental: All concentrations were plated out to the 10^−7 dilutions to ascertain cfu/ml.
# Material was calculated on a 10 ml volume. […] Sterile DMSO was added to appropriate tubes. Sterile oxacillin was added to appropriate tubes at 300 microliters from a 30 mg/10 ml concentration giving it a final concentration of 6 μg/ml. Control conditions were Lactose Broth inoculated with ATCC strain 43300 Staphylococcus aureus with and without 6 μg/ml oxacillin, as well as uninoculated negative controls to show no signs of contamination.
# Appropriate tubes were inoculated at a dilution of ATCC strain 43300 Staphylococcus aureus giving a final concentration of colony forming units of 3.15×10^7/ml (Log=7.49). The tubes were incubated at 25° C. and mixed periodically. Plating was done at 48 hours. […] They were serial diluted down to 10^−7 with 1 ml placed in a sterile petri dish at each dilution point. Then 20 mls of TSA was added to each dilution and swirled and allowed to solidify. All dilutions were placed in a 35° C. incubator for 24 hours. Plates were counted and colony counts changed into log format. A positive and negative control was ascertained.
# [2] = tested on: ATCC strain 43300 Staphylococcus aureus; conditions: for survival (cfu/ml): 12 μg/ml oxacillin (re-added every 24 hours) + MSM (% in label), three columns = triplicate platings, inoculum 3.3×10^5/ml
# Experimental: Additional antibiotic was added every 24 hours. The growth periods tested were 24 (see FIG. 4), 48, 72, 96 and 120 hours.
# USP<51> Antimicrobial Effectiveness protocol was used as the template experimental paradigm. […] All concentrations were plated out to the 10^−7 dilutions to ascertain cfu/ml. […] Additional antibiotic was added at the initial concentration every 24 hours.
# ATCC strain 43300 Staphylococcus aureus was streaked out for isolations. An isolated colony was chosen, streaked again and incubated. Isolate was chosen and then diluted to a McFarland standard of one. The estimated value was then taken to inoculate tubes containing growth media and 12, 30 or 60 μg/ml oxacillin with approximately 10^5 cfu/ml. These tubes were incubated and plated for counting cfu. A clone having no observed log reduction in cfu was selected for the rest of the experiment.
# Material was calculated on a 10 ml volume. Sterile oxacillin was added to each experimental condition to a final concentration of 12, 30 or 60 μg/ml antibiotic.
# All tubes were then inoculated with a dilution of the selected ATCC strain 43300 Staphylococcus aureus clone giving a final level of colony forming units of 3.3×10^5/ml (log=5.52). The tubes were incubated at 25° C. and mixed periodically. Antibiotic was re-inoculated every 24 hours at the initial concentration to maintain pressure on the organism. Plating was done at 24, 48, 72, and 120 hours. Each condition was plated by diluting 1 ml of growth material into 9 ml of MLB diluent broth. […] This mixture was serial diluted down to 10^−7 with 1 ml placed in triplicate in a sterile petri dish at each dilution point. 20 mls of TSA was added to each dilution, swirled and allowed to solidify. All dilutions were placed in a 35° C. incubator for 24 to 72 hours. Bacterial colonies on each plate were counted and the average taken then changed into log format. Any cfu/ml observed greater than 3.3×10^5 (log=5.5) were recorded as >3.3×10^5.
# The tube was then taken out of the experiment and tested for ATCC strain 43300 Staphylococcus growth. The tube was spun down at 5000 rpm for 10 minutes. The supernatant was then decanted into 90 mls of Mueller-Hinton broth with 6 μg/ml oxacillin. This is for enrichment and the recovery of any MRSA cells that may be present whether healthy or stressed. The pellet had 10 mls Mueller-Hinton broth with 6 μg/ml oxacillin added to it to recover any cells that may be present. Both vessels were incubated at 35° C. for 48 hours followed by plating every 24 hours. Each vessel was plated at 10 dilutions to obtain a 1 cfu detection limit.
smiles,measurement,setting,value
"CS(C)(=O)=O [MSM, Methylsulfonylmethane]",log reduction in cfu/ml,[1]; MA condition (6 μg/ml oxacillin + MSM),2.0 log
same,maximum log reduction in cfu/ml,"[1]; MA condition, 10-16% MSM",2.9 log
same,log reduction in cfu/ml,"[1]; MDA condition (6 μg/ml oxacillin + MSM + 1% DMSO), listed as 9% MSM",1.6 log
same,log reduction in cfu/ml,"[1]; MDA condition (6 μg/ml oxacillin + MSM + 1% DMSO), listed as 10-16% MSM",2.0 log
same,survival (cfu/ml),"[2]; 24 hours, listed as 15% MSM",1.35 × 10^4 cfu/ml and 1.30 × 10^4 cfu/ml
same,survival (cfu/ml),"[2]; 24 hours, listed as 16% MSM",7.6 × 10^3 cfu/ml and 7.4 × 10^3 cfu/ml
same,"survival, Average Log","[2]; 12 μg/ml oxacillin + MSM (% in label), 24 hours, listed as 5% MSM",3.91 Log
same,"survival, Average Log","[2]; 12 μg/ml oxacillin + MSM (% in label), 24 hours, listed as 6% MSM",3.92 Log
same,"survival, Average Log","[2]; 12 μg/ml oxacillin + MSM (% in label), 24 hours, listed as 7% MSM",3.91 Log
same,"survival, Average Log","[2]; 12 μg/ml oxacillin + MSM (% in label), 24 hours, listed as 8% MSM",3.82 Log
same,"survival, Average Log","[2]; 12 μg/ml oxacillin + MSM (% in label), 24 hours, listed as 9% MSM",3.72 Log
same,"survival, Average Log","[2]; 12 μg/ml oxacillin + MSM (% in label), 24 hours, listed as 10% MSM",3.76 Log
same,"survival, Average Log","[2]; 12 μg/ml oxacillin + MSM (% in label), 24 hours, listed as 11% MSM",3.91 Log
same,"survival, Average Log","[2]; 12 μg/ml oxacillin + MSM (% in label), 24 hours, listed as 12% MSM",3.85 Log
same,"survival, Average Log","[2]; 12 μg/ml oxacillin + MSM (% in label), 24 hours, listed as 13% MSM",3.95 Log
same,"survival, Average Log","[2]; 12 μg/ml oxacillin + MSM (% in label), 24 hours, listed as 14% MSM",4.00 Log
same,"survival, Average Log","[2]; 12 μg/ml oxacillin + MSM (% in label), 24 hours, listed as 15% MSM",4.11 Log
same,"survival, Average Log","[2]; 12 μg/ml oxacillin + MSM (% in label), 24 hours, listed as 16% MSM",3.88 Log
same,"survival, Average Log","[2]; 12 μg/ml oxacillin + MSM (% in label), 48 hours, listed as 5% MSM",3.6 Log
same,"survival, Average Log","[2]; 12 μg/ml oxacillin + MSM (% in label), 48 hours, listed as 6% MSM",3.2 Log
same,"survival, Average Log","[2]; 12 μg/ml oxacillin + MSM (% in label), 48 hours, listed as 7% MSM",3.9 Log
same,"survival, Average Log","[2]; 12 μg/ml oxacillin + MSM (% in label), 48 hours, listed as 8% MSM",3.7 Log
same,"survival, Average Log","[2]; 12 μg/ml oxacillin + MSM (% in label), 48 hours, listed as 9% MSM",3.4 Log
same,"survival, Average Log","[2]; 12 μg/ml oxacillin + MSM (% in label), 48 hours, listed as 10% MSM",2.7 Log
same,"survival, Average Log","[2]; 12 μg/ml oxacillin + MSM (% in label), 48 hours, listed as 11% MSM",2.8 Log
same,"survival, Average Log","[2]; 12 μg/ml oxacillin + MSM (% in label), 48 hours, listed as 12% MSM",2.8 Log
same,"survival, Average Log","[2]; 12 μg/ml oxacillin + MSM (% in label), 48 hours, listed as 13% MSM",2.8 Log
same,"survival, Average Log","[2]; 12 μg/ml oxacillin + MSM (% in label), 48 hours, listed as 14% MSM",1.0 Log
same,"survival, Average Log","[2]; 12 μg/ml oxacillin + MSM (% in label), 48 hours, listed as 15% MSM",3.7 Log
same,"survival, Average Log","[2]; 12 μg/ml oxacillin + MSM (% in label), 48 hours, listed as 16% MSM",3.7 Log
same,"survival, Average Log","[2]; 12 μg/ml oxacillin + MSM (% in label), 72 hours, listed as 5% MSM",5.5 Log
same,"survival, Average Log","[2]; 12 μg/ml oxacillin + MSM (% in label), 72 hours, listed as 6% MSM",5.5 Log
same,"survival, Average Log","[2]; 12 μg/ml oxacillin + MSM (% in label), 72 hours, listed as 7% MSM",5.5 Log
same,"survival, Average Log","[2]; 12 μg/ml oxacillin + MSM (% in label), 72 hours, listed as 8% MSM",5.5 Log
same,"survival, Average Log","[2]; 12 μg/ml oxacillin + MSM (% in label), 72 hours, listed as 9% MSM",4.5 Log
same,"survival, Average Log","[2]; 12 μg/ml oxacillin + MSM (% in label), 72 hours, listed as 10% MSM",4.0 Log
same,"survival, Average Log","[2]; 12 μg/ml oxacillin + MSM (% in label), 72 hours, listed as 11% MSM",3.6 Log
same,"survival, Average Log","[2]; 12 μg/ml oxacillin + MSM (% in label), 72 hours, listed as 12% MSM",3.1 Log
same,"survival, Average Log","[2]; 12 μg/ml oxacillin + MSM (% in label), 72 hours, listed as 13% MSM",2.7 Log
same,"survival, Average Log","[2]; 12 μg/ml oxacillin + MSM (% in label), 72 hours, listed as 14% MSM",2.0 Log
same,"survival, Average Log","[2]; 12 μg/ml oxacillin + MSM (% in label), 72 hours, listed as 15% MSM",2.3 Log
same,log reduction in the number of cfu/ml,"[2]; 12 μg/ml oxacillin, 48 hours",4.5 log
same,log reduction in the number of cfu/ml,"[2]; 12 μg/ml oxacillin, 72 hours",4.5 log
same,log reduction in the number of cfu/ml,"[2]; 12 μg/ml oxacillin, MSM concentrations of 12%-16%, 72 hours",1 log
same,average log reduction in the number of cfu/ml,"[2]; 12 μg/ml oxacillin, all MSM concentrations, 24 hours",1.5 logs
same,average Log reduction in the number of cfu/ml,"[2]; 30 μg/ml and 60 μg/ml oxacillin, lower end of MSM concentrations, 24 hours",3 log
same,"survival, Average Log","[2]; 30 μg/ml oxacillin + MSM (% in label), 24 hours, listed as 5% MSM",2.51 Log
same,"survival, Average Log","[2]; 30 μg/ml oxacillin + MSM (% in label), 24 hours, listed as 6% MSM",2.46 Log
same,"survival, Average Log","[2]; 30 μg/ml oxacillin + MSM (% in label), 24 hours, listed as 7% MSM",2.98 Log
same,"survival, Average Log","[2]; 30 μg/ml oxacillin + MSM (% in label), 24 hours, listed as 8% MSM",3.07 Log
same,"survival, Average Log","[2]; 30 μg/ml oxacillin + MSM (% in label), 24 hours, listed as 9% MSM",3.01 Log
same,"survival, Average Log","[2]; 30 μg/ml oxacillin + MSM (% in label), 24 hours, listed as 10% MSM",3.32 Log
same,"survival, Average Log","[2]; 30 μg/ml oxacillin + MSM (% in label), 24 hours, listed as 11% MSM",3.57 Log
same,"survival, Average Log","[2]; 30 μg/ml oxacillin + MSM (% in label), 24 hours, listed as 12% MSM",3.59 Log
same,"survival, Average Log","[2]; 30 μg/ml oxacillin + MSM (% in label), 24 hours, listed as 13% MSM",3.62 Log
same,"survival, Average Log","[2]; 30 μg/ml oxacillin + MSM (% in label), 24 hours, listed as 14% MSM",3.78 Log
same,"survival, Average Log","[2]; 30 μg/ml oxacillin + MSM (% in label), 24 hours, listed as 15% MSM",3.94 Log
same,"survival, Average Log","[2]; 30 μg/ml oxacillin + MSM (% in label), 24 hours, listed as 16% MSM",3.91 Log
same,"survival, Average Log","[2]; 30 μg/ml oxacillin + MSM (% in label), 48 hours, listed as 5% MSM",3.8 Log
same,"survival, Average Log","[2]; 30 μg/ml oxacillin + MSM (% in label), 48 hours, listed as 6% MSM",3.7 Log
same,"survival, Average Log","[2]; 30 μg/ml oxacillin + MSM (% in label), 48 hours, listed as 7% MSM",2.3 Log
same,"survival, Average Log","[2]; 30 μg/ml oxacillin + MSM (% in label), 48 hours, listed as 8% MSM",3.1 Log
same,"survival, Average Log","[2]; 30 μg/ml oxacillin + MSM (% in label), 48 hours, listed as 9% MSM",2.4 Log
same,"survival, Average Log","[2]; 30 μg/ml oxacillin + MSM (% in label), 48 hours, listed as 10% MSM",2.6 Log
same,"survival, Average Log","[2]; 30 μg/ml oxacillin + MSM (% in label), 48 hours, listed as 11% MSM",2.4 Log
same,"survival, Average Log","[2]; 30 μg/ml oxacillin + MSM (% in label), 48 hours, listed as 12% MSM",2.6 Log
same,"survival, Average Log","[2]; 30 μg/ml oxacillin + MSM (% in label), 48 hours, listed as 13% MSM",2.5 Log
same,"survival, Average Log","[2]; 30 μg/ml oxacillin + MSM (% in label), 48 hours, listed as 14% MSM",2.5 Log
same,"survival, Average Log","[2]; 30 μg/ml oxacillin + MSM (% in label), 48 hours, listed as 15% MSM",2.8 Log
same,"survival, Average Log","[2]; 30 μg/ml oxacillin + MSM (% in label), 48 hours, listed as 16% MSM",2.6 Log
same,"survival, Average Log","[2]; 30 μg/ml oxacillin + MSM (% in label), 72 hours, listed as 5% MSM",5.5 Log
same,"survival, Average Log","[2]; 30 μg/ml oxacillin + MSM (% in label), 72 hours, listed as 6% MSM",5.5 Log
same,"survival, Average Log","[2]; 30 μg/ml oxacillin + MSM (% in label), 72 hours, listed as 7% MSM",4.5 Log
same,"survival, Average Log","[2]; 30 μg/ml oxacillin + MSM (% in label), 72 hours, listed as 8% MSM",5.5 Log
same,"survival, Average Log","[2]; 30 μg/ml oxacillin + MSM (% in label), 72 hours, listed as 9% MSM",2.9 Log
same,"survival, Average Log","[2]; 30 μg/ml oxacillin + MSM (% in label), 72 hours, listed as 10% MSM",3.9 Log
same,"survival, Average Log","[2]; 30 μg/ml oxacillin + MSM (% in label), 72 hours, listed as 11% MSM",3.2 Log
same,"survival, Average Log","[2]; 30 μg/ml oxacillin + MSM (% in label), 72 hours, listed as 12% MSM",2.6 Log
